Experimental data as given in BindingDB's records for doi:10.1016/0014-5793(93)80368-5 (University of Heidelberg Zmbh, 1993).

Biological target: 5-hydroxytryptamine receptor 5B (Rattus norvegicus, UniProt P35365)
Sequence (P35365 whole entry): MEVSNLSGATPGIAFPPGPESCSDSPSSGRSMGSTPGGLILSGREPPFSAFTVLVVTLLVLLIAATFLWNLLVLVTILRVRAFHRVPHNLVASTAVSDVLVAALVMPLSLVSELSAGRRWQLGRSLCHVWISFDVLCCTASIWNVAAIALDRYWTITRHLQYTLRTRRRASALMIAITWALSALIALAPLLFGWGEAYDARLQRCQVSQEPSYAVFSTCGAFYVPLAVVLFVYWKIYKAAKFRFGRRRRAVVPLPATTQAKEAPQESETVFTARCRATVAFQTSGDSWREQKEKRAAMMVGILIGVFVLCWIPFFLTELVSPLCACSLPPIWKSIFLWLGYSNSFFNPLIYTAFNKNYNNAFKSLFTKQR

Structure (SMILES)	Ki
CC[C@@H](CO)NC(=O)[C@@H]1C=C2c3cccc4c3c(cn4C)C[C@H]2N(C)C1	40.7 nM
CNS(=O)(=O)Cc1ccc2[nH]cc(CCN(C)C)c2c1 [Sumax]	807 nM
O=C(c1ccc(F)cc1)C1CCN(CCn2c(=O)[nH]c3ccccc3c2=O)CC1 [3-(2-{4-[(4-fluorophenyl)carbonyl]piperidin-1-yl}ethyl)-1,2,3,4-tetrahydroquinazoline-2,4-dione]	1000 nM
CN1CC(C(=O)N[C@]2(C)O[C@@]3(O)C4CCCN4C(=O)[C@H](Cc4ccccc4)N3C2=O)CC2c3cccc4[nH]cc(c34)CC21 (stereo partly drawn) [7-Methyl-4,6,6a,7,8,9,10,10a-octahydro-indolo[4,3-fg]quinoline-9-carboxylic acid ((2R,5S,10bS)-5-benzyl-10b-hydroxy-2-methyl-3,6-dioxo-octahydro-oxazolo[3,2-a]pyrrolo[2,1-c]pyrazin-2-yl)-amide]	31 nM
CN1CCC(=C2c3ccccc3C=Cc3ccccc32)CC1 [5-(1-methylpiperidylidene-4)-5H-dibenzo(a,d)cyclopheptene]	117 nM
CCCN(CCC)C1CCc2cccc(O)c2C1 (stereo not given)	46 nM
CC(C)NCC(O)COc1cccc2[nH]ccc12 (stereo not given) [LB-46]	1000 nM
CCN(CC)C(=O)[C@@H]1C=C2c3cccc4[nH]cc(c34)C[C@H]2N(C)C1 [(4R,7R)-N,N-diethyl-6-methyl-6,11-diazatetracyclo[7.6.1.0^{2,7}.0^{12,16}]hexadeca-1(16),2,9,12,14-pentaene-4-carboxamide]	3.2 nM
NCCc1c[nH]c2ccc(OCC(=O)NCC(=O)N[C@@H](Cc3ccc(O)cc3)C(N)=O)cc12	582 nM
O=C(CCCN1CCC2(CC1)C(=O)NCN2c1ccccc1)c1ccc(F)cc1 [8-[4-(4-fluorophenyl)-4-oxidanylidene-butyl]-1-phenyl-1,3,8-triazaspiro[4.5]decan-4-one]	1000 nM
